Data as given in paper PMC12175177 (Frontiers in Pharmacology, 2025).

Tested on: SARS-CoV-2 A2.5 variant
Assay: Pre- and post-exposure assay, A2.5 variant in Vero E6 cells
Format: cell-based

Compound | antiviral effect, treatment 1 hour post-infection, A2.5 | effect on viral replication, treatment 1 hour pre-infection, A2.5
CCN(CC)CCCC(C)Nc1ccnc2cc(Cl)ccc12 (stereo not shown) [Chloroquine diphosphate (CQ), Chloroquine diphosphate] | dose-dependent antiviral effect | did not influence the viral replication
COc1cc(NC(C)CCCN)c2ncccc2c1 (stereo not shown) [Primaquine Phosphate (PQ), Primaquine Phosphate] | dose-dependent antiviral effect | did not influence the viral replication
